Laboratory results as given in US20250011311A1, “AMIDO HETEROAROMATIC COMPOUNDS” (AstraZeneca AB, priority 2022, published 2025).

What was measured:
[1] = target: recombinant 17bHSD13 (N2-K300) (Homo sapiens (Human), UniProt Q7Z5P4); experiment: In Vitro 17bHSD13 Enzyme Assay; type: biochemical; details: 80 nM 17bHSD13, 0.5 mM NAD, 20 μM Estradiol, 2.5 h; estradiol to estrone by LC-MS/MS
Summary of the method: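 Human 17bHSD13 (N2-K300, 80 nM) with 0.5 mM NAD, 20 μM estradiol and varied compound in 50 mM Tris-Cl pH 7.4, 5 mM EDTA, 0.01% DDM. Estrone/(estrone+estradiol) ratio read by LC-MS/MS (APCI, positive MRM). Inhibition normalised to DMSO and a known-inhibitor control; IC50 from curve fit.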

[2] = target: recombinant 17bHSD4 (M1-N311) (Homo sapiens (Human), UniProt P51659); experiment: In Vitro 17bHSD4 Enzyme Assay; type: biochemical; details: 40 nM 17bHSD4, 0.125 mM NAD, 15 μM Estradiol, 1.5 h; NADH fluorescence; read-out: 17HSD17b4 Enzyme assay IC50
[3] = target: over expressed HSD17β13 in HEK293S cells (Homo sapiens (Human), UniProt Q7Z5P4); experiment: In Vitro 17bHSD13 Cell Assay; type: cell-based; details: HEK293S cells over expressing HSD17β13; estradiol to estrone conversion, 18 h, LC-MS/MS; read-out: 17bHSD1713 Cell assay IC50
Summary of the method: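 HEK293S cells overexpressing HSD17β13 convert estradiol to estrone; product read by LC-MS/MS (APCI, positive MRM) as AUC ratio estrone/(estrone+estradiol). Effect normalised between DMSO and maximal inhibition by a known inhibitor control; IC50 from curve fit.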

human hepatocytes = experiment: Assay A: Metabolic Stability in Human Hepatocytes; type: in vitro ADME; details: cryopreserved human hepatocytes, 10^6 viable cells/mL, 1 μM compound, 37° C.
Summary of the method: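 Cryopreserved hepatocytes (10^6 viable cells/mL) at 37° C with 1 μM test compound, sampled 0.5–120 min and quenched in MeCN. Parent measured by LC-MS/MS; CLint (μL/min/10^6 cells) from the slope of ln(parent concentration) vs time.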

CYP2C9 = CYP2C9 (Homo sapiens (Human), UniProt P11712); experiment: Assay B: Cytochrome P450 Inhibition 2C9
Chain of CYP2C9 (P11712 whole entry): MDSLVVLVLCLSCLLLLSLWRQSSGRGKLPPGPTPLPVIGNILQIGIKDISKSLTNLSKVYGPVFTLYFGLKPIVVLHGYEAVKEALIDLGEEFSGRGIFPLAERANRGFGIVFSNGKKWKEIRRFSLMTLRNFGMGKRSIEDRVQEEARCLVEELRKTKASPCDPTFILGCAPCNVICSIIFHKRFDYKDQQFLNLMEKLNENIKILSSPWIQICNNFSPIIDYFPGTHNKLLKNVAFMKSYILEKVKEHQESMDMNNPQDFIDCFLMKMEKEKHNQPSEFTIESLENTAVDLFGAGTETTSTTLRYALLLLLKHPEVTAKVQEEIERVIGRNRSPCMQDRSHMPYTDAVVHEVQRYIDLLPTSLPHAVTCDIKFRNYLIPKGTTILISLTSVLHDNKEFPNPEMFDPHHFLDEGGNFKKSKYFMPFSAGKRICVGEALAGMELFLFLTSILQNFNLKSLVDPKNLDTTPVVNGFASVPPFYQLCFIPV
Method: A fluorescence-based method in 96-well format was used to determine the inhibition of 2C9 (Crespi, C. L. et al., Microtiter plate assays for inhibition of human, drug-metabolizing cytochromes P450. Anal Biochem 1997, 248 (1), 188-190. DOI: 10.1006/abio.1997.2145, which is incorporated herein by reference). The recombinant human enzymes used were prepared in house, except for CYP2D6 (CYPEX LTD, Dundee, UK). Different coumarin substrates, biotransformed into fluorescent metabolites, were used as probes for each individual CYP. A fluorescence plate reader (SPECTRAMAX GEMINIXS, MOLECULAR DEVICES, Sunnyvale, California, USA) was used to measure the levels of metabolites formed. A dilution series of the test substrates was prepared at eight different concentrations. For each CYP, a mixture of the enzyme, corresponding coumarin substrate, potassium phosphate buffer pH 7.4 and water (concentrations and volumes were CYP-dependent) were added to each well in a black 96-well plate. The test substrates at different concentrations were added. After 10 min pre-incubation, the co-factor NADPH was added to initiate the reaction. After 20-50 min (CYP and substrate-dependent) the reaction was terminated by addition of trisbase/MeCN (20:80). The plates were transferred to the fluorescence plate reader where the wavelengths were set individually for the different coumarin substrates and their respective fluorescent metabolite. The responses were exported to Excel where the IC50 curves were plotted (percent inhibition versus concentration) and IC50 values calculated for each test substrate and enzyme using XL-fit.

Chain of over expressed HSD17β13 in HEK293S cells (Q7Z5P4 20-300): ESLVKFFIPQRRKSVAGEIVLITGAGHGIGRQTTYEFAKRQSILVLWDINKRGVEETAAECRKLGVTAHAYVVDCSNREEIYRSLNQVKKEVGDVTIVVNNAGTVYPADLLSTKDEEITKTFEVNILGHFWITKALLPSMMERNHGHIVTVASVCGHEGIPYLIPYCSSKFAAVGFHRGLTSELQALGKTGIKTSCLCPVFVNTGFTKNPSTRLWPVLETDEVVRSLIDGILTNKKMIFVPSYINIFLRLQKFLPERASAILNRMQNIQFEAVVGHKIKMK
Chain of recombinant 17bHSD13 (N2-K300) (Q7Z5P4 2-300): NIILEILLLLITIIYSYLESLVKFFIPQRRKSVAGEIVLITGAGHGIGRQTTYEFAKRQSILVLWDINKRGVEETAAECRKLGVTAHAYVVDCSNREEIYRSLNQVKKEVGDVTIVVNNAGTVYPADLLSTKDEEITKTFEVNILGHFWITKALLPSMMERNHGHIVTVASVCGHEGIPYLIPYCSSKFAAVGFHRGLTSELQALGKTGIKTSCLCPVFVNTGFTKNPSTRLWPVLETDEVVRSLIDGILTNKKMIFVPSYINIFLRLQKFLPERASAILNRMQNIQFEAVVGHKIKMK
Chain of recombinant 17bHSD4 (M1-N311) (P51659 1-311): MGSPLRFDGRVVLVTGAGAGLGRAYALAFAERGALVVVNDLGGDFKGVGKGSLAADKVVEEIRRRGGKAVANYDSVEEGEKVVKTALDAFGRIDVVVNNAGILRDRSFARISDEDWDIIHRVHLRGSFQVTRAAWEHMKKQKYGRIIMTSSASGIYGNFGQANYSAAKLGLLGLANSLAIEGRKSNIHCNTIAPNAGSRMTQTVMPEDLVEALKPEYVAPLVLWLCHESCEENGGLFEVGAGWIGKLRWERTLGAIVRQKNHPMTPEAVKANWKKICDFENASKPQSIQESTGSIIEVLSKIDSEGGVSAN

IC50 [1] | IC50 [2] | IC50 [3] | IC50 (CYP2C9) | Compound | Assay A: Human Heps Met Clint GMean CLint (μl/min/1E6) (human hepatocytes)
0.061 µM | 17.2 µM | 2.52 µM | 3.9 µM | N#Cc1cccc2c1CCN(C(=O)c1noc(-c3c(F)c(O)c(F)c(F)c3Br)n1)C2 [Example 30, 2-(5-(2-Bromo-3,4,6-trifluoro-5-hydroxyphenyl)-1,2,4-oxadiazole-3-carbonyl)-1,2,3,4-tetrahydroisoquinoline-5-carbonitrile] | 15.6 μl/min/1E6
0.131 µM | 48.7 µM | 0.11 µM | 2.4 µM | O=C(c1noc(-c2cc(F)c(F)c(O)c2F)n1)N1CCN(CCOc2ccc(Br)cn2)CC1 [Example 69, (4-(2-((5-Bromopyridin-2-yl)oxy)ethyl)piperazin-1-yl)(5-(2,4,5-trifluoro-3-hydroxyphenyl)-1,2,4-oxadiazol-3-yl)methanone] | 13.1 μl/min/1E6
0.197 µM | > 50 µM | 0.39 µM | 5.4 µM | O=C(c1noc(-c2cc(F)c(F)c(O)c2F)n1)N1CCO[C@H]2CCC[C@H]21 [Example 112, ((4aR,7aS)-Hexahydrocyclopenta[b][1,4]oxazin-4(4aH)-yl)(5-(2,4,5-trifluoro-3-hydroxyphenyl)-1,2,4-oxadiazol-3-yl)methanone] | 7.4 μl/min/1E6
0.085 µM | > 50 µM | 0.04 µM | 4.4 µM | CC(C)[C@H]1CN(C(=O)c2noc(-c3cc(F)c(F)c(O)c3F)n2)C[C@@H](C)O1 (racemic) [Example 122, rac-((2R,6S)-2-isopropyl-6-methylmorpholino)(5-(2,4,5-trifluoro-3-hydroxyphenyl)-1,2,4-oxadiazol-3-yl)methanone] | 8.8 μl/min/1E6
0.187 µM | 19.3 µM | 0.25 µM | 3.1 µM | N#Cc1cccc2c1CCN(C(=O)c1noc(-c3cc(F)c(F)c(O)c3F)n1)C2 [Example 66, 2-(5-(2,4,5-Trifluoro-3-hydroxyphenyl)-1,2,4-oxadiazole-3-carbonyl)-1,2,3,4-tetrahydroisoquinoline-5-carbonitrile] | 12.1 μl/min/1E6
0.157 µM | 17.6 µM | 0.44 µM | 0.2 µM | N#Cc1ccc2c(c1)CN(C(=O)c1noc(-c3cc(F)c(F)c(O)c3F)c1C#N)CC2 [Example 29, 3-(7-Cyano-1,2,3,4-tetrahydroisoquinoline-2-carbonyl)-5-(2,4,5-trifluoro-3-hydroxyphenyl)isoxazole-4-carbonitrile] | 16.9 μl/min/1E6
0.079 µM | 4 µM | 0.53 µM | 3 µM | Cn1nnc(-c2cnc(N3CCN(C(=O)c4noc(-c5cc(F)c(F)c(O)c5F)n4)CC3)c(Cl)c2)n1 [Example 67, (4-(3-Chloro-5-(2-methyl-2H-tetrazol-5-yl)pyridin-2-yl)piperazin-1-yl)(5-(2,4,5-trifluoro-3-hydroxyphenyl)-1,2,4-oxadiazol-3-yl)methanone] | 6.6 μl/min/1E6
0.114 µM | 41.8 µM | 15.8 µM | > 30 µM | O=C(Nc1ccnn1C1CCCCC1)c1cc(-c2ccc(F)c(O)c2)on1 [Example 99, N-(1-Cyclohexyl-1H-pyrazol-5-yl)-5-(4-fluoro-3-hydroxyphenyl)isoxazole-3-carboxamide] | >300 μl/min/1E6
0.468 µM | 36.4 µM | 0.19 µM | 16.8 µM | C[C@@H]1CN(C(=O)c2noc(-c3cc(F)c(F)c(O)c3F)n2)C[C@@H](C)O1 [Example 88, ((2R,6R)-2,6-Dimethylmorpholino)(5-(2,4,5-trifluoro-3-hydroxyphenyl)-1,2,4-oxadiazol-3-yl)methanone] | 3.6 μl/min/1E6
0.046 µM | > 50 µM | 0.12 µM | 7.2 µM | O=C(c1noc(-c2cc(F)c(F)c(O)c2F)n1)N1CCO[C@@H]2CCC[C@H]21 [Example 114, ((4aR,7aR)-Hexahydrocyclopenta[b][1,4]oxazin-4(4aH)-yl)(5-(2,4,5-trifluoro-3-hydroxyphenyl)-1,2,4-oxadiazol-3-yl)methanone] | 6.4 μl/min/1E6
0.046 µM | 11.7 µM | 1.7 µM | 14.8 µM | N#Cc1cccc2c1CCN(C(=O)c1noc(-c3c(F)c(O)c(F)c(F)c3I)n1)C2 [Example 109, 2-(5-(2,4,5-Trifluoro-3-hydroxy-6-iodophenyl)-1,2,4-oxadiazole-3-carbonyl)-1,2,3,4-tetrahydroisoquinoline-5-carbonitrile] | 13.0 μl/min/1E6
0.08 µM | 17.8 µM | 0.79 µM | 0.4 µM | N#Cc1c(C(=O)N2Cc3ccc(F)cc3C2)noc1-c1cc(F)c(F)c(O)c1F [Example 18, 3-(5-Fluoroisoindoline-2-carbonyl)-5-(2,4,5-trifluoro-3-hydroxyphenyl)isoxazole-4-carbonitrile] | 17.2 μl/min/1E6
0.168 µM | > 50 µM | 0.07 µM | 3.7 µM | C[C@@H]1CN(C(=O)c2cc(-c3cc(F)c(F)c(O)c3F)on2)C[C@H](C)O1 [Example 89, ((2R,6S)-2,6-Dimethylmorpholino)(5-(2,4,5-trifluoro-3-hydroxyphenyl)isoxazol-3-yl)methanone] | 14.6 μl/min/1E6
0.069 µM | > 50 µM | 0.8 µM | 12.8 µM | O=C(c1noc(-c2ccc(F)c(O)c2)n1)N1CC[C@H](c2ccccc2)C1 [Example 11, (R)-(5-(4-Fluoro-3-hydroxyphenyl)-1,2,4-oxadiazol-3-yl)(3-phenylpyrrolidin-1-yl)methanone] | >300 μl/min/1E6
0.128 µM | 44.8 µM | 0.14 µM | 2.6 µM | CCCC1CCN(C(=O)c2noc(-c3cc(F)c(F)c(O)c3F)n2)C1 (centres unmarked) [Example 76, (3-Propylpyrrolidin-1-yl)(5-(2,4,5-trifluoro-3-hydroxyphenyl)-1,2,4-oxadiazol-3-yl)methanone] | 18.2 μl/min/1E6
0.036 µM | 6.1 µM | 0.08 µM | 0.6 µM | COc1ccccc1C1CCN(C(=O)c2noc(-c3cc(F)c(F)c(O)c3F)n2)C1 (centres unmarked) [Example 4, (3-(2-Methoxyphenyl)pyrrolidin-1-yl)(5-(2,4,5-trifluoro-3-hydroxyphenyl)-1,2,4-oxadiazol-3-yl)methanone] | 47.4 μl/min/1E6
0.075 µM | 6.7 µM | 1.61 µM | 1.8 µM | O=C(c1noc(-c2cc(F)c(F)c(O)c2F)n1)N1CC(Oc2ccccc2)C1 [Example 2, (3-Phenoxyazetidin-1-yl)(5-(2,4,5-trifluoro-3-hydroxyphenyl)-1,2,4-oxadiazol-3-yl)methanone] | 14.7 μl/min/1E6
0.048 µM | 23.6 µM | 1.42 µM | 1.2 µM | O=C(c1noc(-c2cc(F)c(F)c(O)c2F)n1)N1CCCC(OCc2ccccc2)C1 (centres unmarked) [Example 94, (3-(Benzyloxy)piperidin-1-yl)(5-(2,4,5-trifluoro-3-hydroxyphenyl)-1,2,4-oxadiazol-3-yl)methanone] | 17.3 μl/min/1E6

Compound | IC50 [1] | IC50 [2] | IC50 [3] | IC50 (CYP2C9) | Assay A: Human Heps Met Clint GMean CLint (μl/min/1E6) (human hepatocytes)
CC1CN(C(=O)c2noc(-c3cc(F)c(F)c(O)c3F)n2)CC2(CCC2)O1 (racemic) [Example 123, (6-Methyl-5-oxa-8-azaspiro[3.5]nonan-8-yl)(5-(2,4,5-trifluoro-3-hydroxyphenyl)-1,2,4-oxadiazol-3-yl)methanone] | 0.077 µM | 32 µM | 0.08 µM | 9.3 µM | 8.3 μl/min/1E6
